“Also recorded” adds a separate entry of the source.
Experiments:
c-Kit+ cells = test: Colony formation assay in methylcellulose with hematopoietic cytokines; format: cell-based, mice; conditions: c-Kit+ cells treated 3 days ex vivo, then methylcellulose 10-14 days
Experimental: The primary cultures are shown.
Methylcellulose culture: Sorted GFP^+ BM cells were plated in individual wells of 6-well plates (Corning) containing 550 μl 1.0% methylcellulose (Stem Cell Technologies) as previously described (Trowbridge, et al., 2006, Nature. 441:518-522). The methylcellulose was supplemented with 1% penicillin/streptomycin (Gibco; Invitrogen), 50 ng/ml SCF, 10 ng/ml IL-3, 10 ng/ml IL-6, and 3 U/ml erythropoietin. Colonies were incubated at 37° C. in humidified incubators at 5% CO2. Colony formation was scored by counting all colonies of greater than 30 viable cells after 10-14 days of culture.
To test whether progenitor cells are increased by lithium treatment, colony formation assays were performed. […] To confirm these studies, bone marrow cells were isolated from lithium treated mice and cultured in methylcellulose with hematopoietic cytokines.

LSK cells = conditions: cited from earlier work

Compound | hematopoietic colony number (c-Kit+ cells) | overall marrow cellularity (LSK cells (HSCs/HPCs); mice treated 2 weeks, vs control) | number of LSK cells in bone marrow (LSK cells (HSCs/HPCs); mice treated 2 weeks, vs control (NaCl for lithium), FCM) | bone marrow morphology / architecture (LSK cells (HSCs/HPCs); treated versus control marrows) | HSCs measured by long-term competitive repopulation assay (LSK cells; mice, Goessling et al. 2009) | increase in LSK cells (LSK cells; treated mice, Trowbridge et al. 2006)
O=C1Nc2cc(Br)ccc2/C1=C1/Nc2ccccc2/C1=N\O [6BIO, 6-bromo-indirubin 3′-oxime] | marked increase; also recorded: increased | increased marrow cellularity; also recorded: parallel increase | pronounced increase; also recorded: increased | no observable change | increases HSCs | 
COc1ccc(CNC(=O)Nc2ncc([N+](=O)[O-])s2)cc1 [AR-A014418] | marked increase; also recorded: increased |  |  |  |  | 
Cc1c[nH]c(-c2cnc(NCCNc3ccc(C#N)cn3)nc2-c2ccc(Cl)cc2Cl)n1 [CHIR-911] |  |  |  |  |  | approximately 50%
